Results reported in US9149038B2, “4-amino-6-(heterocyclic)picolinates and 6-amino-2-(heterocyclic)pyrimidine-4-carboxylates and their use as herbicides” (Dow AgroSciences LLC, priority 2013, dated 2015).
Where two headings read alike, the source gives them in different places.

What was measured:
[1] = system: Key Broadleaf Weed and Crop Species; experiment: Post-Emergent Test II: postemergent herbicidal activity, visual rating after 14 d (Table 7); format: in vivo; conditions: post-emergence, 336 h; for pest or weed control at 35 g/ha: 35 g ai/ha; for pest or weed control at 70 g/ha: 70 g ai/ha; for pest or weed control at 140 g/ha: 140 g ai/ha
In short: (§1)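 Visual scoring at 14 d, 0 (no injury) to 100 (complete kill), relative to untreated plants. Postemergent overhead track-sprayer application, 187 L/ha, at a top rate plus serial ½×–1/16× rates, to plants grown 7–21 d at about 23–29° C day under a 15 h photoperiod, then subirrigated.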

[2] = system: Key Grass and Sedge Weeds as well as Grass Crops; experiment: Post-Emergent Test II: postemergent herbicidal activity, visual rating after 14 d (Table 8); format: in vivo; conditions: post-emergence, 336 h; for pest or weed control at 35 g/ha: 35 g ai/ha; for pest or weed control at 70 g/ha: 70 g ai/ha; for pest or weed control at 140 g/ha: 140 g ai/ha
In short: as §1

[3] = ABUTH: velvetleaf (Abutilon theophrasti), read-out: Visual Growth Reduction (%) 14 Days After Application ABUTH
[4] = AMARE: redroot pigweed (Amaranthus retroflexus), read-out: Visual Growth Reduction (%) 14 Days After Application AMARE
[5] = BRSNN: oilseed rape, canola (Brassica napus), read-out: Visual Growth Reduction (%) 14 Days After Application BRSNN
[6] = CHEAL: lambsquarters (Chenopodium album), read-out: Visual Growth Reduction (%) 14 Days After Application CHEAL
[7] = EPHHL: wild poinsettia (Euphorbia heterophylla), read-out: Visual Growth Reduction (%) 14 Days After Application EPHHL
[8] = HELAN: sunflower (Helianthus annuus), read-out: Visual Growth Reduction (%) 14 Days After Application HELAN
[9] = barnyardgrass (Echinochloa crus-galli), read-out: Visual Growth Reduction (%) 14 Days After Application, ECHCG
[10] = maize, corn (Zea mays), read-out: Visual Growth Reduction (%) 14 Days After Application, ZEAMX
[11] = rice (Oryza sativa), read-out: Visual Growth Reduction (%) 14 Days After Application, ORYSA
[12] = wheat, spring (Triticum aestivum), read-out: Visual Growth Reduction (%) 14 Days After Application, TRZAS
[13] = yellow nutsedge (Cyperus esculentus), read-out: Visual Growth Reduction (%) 14 Days After Application, CYPES

Nc1c(F)c(-c2ccc3c(c2)OCC3)nc(C(=O)O)c1Cl [Compound 101]
60 to 74%: pest or weed control at 35 g/ha [2, 9] | pest or weed control at 70 g/ha [2, 9]
30 to 44%: pest or weed control at 140 g/ha [1, 7]
0 to 29%: pest or weed control at 35 g/ha [1, 5] | pest or weed control at 35 g/ha [1, 7] | pest or weed control at 70 g/ha [1, 7] | pest or weed control at 35 g/ha [2, 10] | pest or weed control at 70 g/ha [2, 10] | pest or weed control at 140 g/ha [2, 10] | pest or weed control at 35 g/ha [2, 11] | pest or weed control at 70 g/ha [2, 11] | pest or weed control at 140 g/ha [2, 11] | pest or weed control at 35 g/ha [2, 12] | pest or weed control at 70 g/ha [2, 12] | pest or weed control at 140 g/ha [2, 12] | pest or weed control at 35 g/ha [2, 13] | pest or weed control at 70 g/ha [2, 13] | pest or weed control at 140 g/ha [2, 13]
95 to 100%: pest or weed control at 140 g/ha [1, 3] | pest or weed control at 35 g/ha [1, 4] | pest or weed control at 70 g/ha [1, 4] | pest or weed control at 140 g/ha [1, 4] | pest or weed control at 140 g/ha [1, 5] | pest or weed control at 35 g/ha [1, 6] | pest or weed control at 70 g/ha [1, 6] | pest or weed control at 140 g/ha [1, 6]
75 to 84%: pest or weed control at 35 g/ha [1, 3] | pest or weed control at 140 g/ha [2, 9]
85 to 94%: pest or weed control at 70 g/ha [1, 3] | pest or weed control at 70 g/ha [1, 5] | pest or weed control at 35 g/ha [1, 8] | pest or weed control at 70 g/ha [1, 8] | pest or weed control at 140 g/ha [1, 8]
